From PubChem BioAssay AID1918946 (Molecular Pharmacology Branch, DTP, NCI, 2023)

System: 885512-296-R-J2-PDC complex spheroid viability
Test: Anticancer human tumor 885512-296-R-J2-PDC patient-derived breast carcinoma cell line growth inhibition
Details: for IC50: curve of first compound; for viability, T/C: stronger effect = lower value
Summary of the method: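 Multicellular complex spheroids of tumor cells with human endothelial cells (HUVEC) and mesenchymal stem cells; the LSD1 inhibitor iadademstat was combined with standard-of-care or investigational agents. Top concentration at or near clinical Cmax, half-log dilutions; final DMSO ≤0.25%.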

[1] = second compound 0.1 µM, first compound 0.0316 µM
[2] = second compound 0.1 µM, first compound 0.1 µM
[3] = second compound 0.1 µM, first compound 0.316 µM
[4] = second compound 0.1 µM, first compound 1 µM
[5] = second compound 0.1 µM, first compound 3.16 µM
[6] = second compound 0.1 µM, first compound 10 µM
[7] = second compound 0.316 µM, first compound 0.0316 µM
[8] = second compound 0.316 µM, first compound 0.1 µM
[9] = second compound 0.316 µM, first compound 0.316 µM
[10] = second compound 0.316 µM, first compound 1 µM
[11] = second compound 0.316 µM, first compound 3.16 µM
[12] = second compound 0.316 µM, first compound 10 µM
[13] = second compound 1 µM, first compound 0.0316 µM
[14] = second compound 1 µM, first compound 0.1 µM
[15] = second compound 1 µM, first compound 0.316 µM
[16] = second compound 1 µM, first compound 1 µM
[17] = second compound 1 µM, first compound 3.16 µM
[18] = second compound 1 µM, first compound 10 µM
[19] = second compound 3.16 µM, first compound 0.0316 µM
[20] = second compound 3.16 µM, first compound 0.1 µM
[21] = second compound 3.16 µM, first compound 0.316 µM
[22] = second compound 3.16 µM, first compound 1 µM
[23] = second compound 3.16 µM, first compound 3.16 µM
[24] = second compound 3.16 µM, first compound 10 µM
[25] = second compound 10 µM, first compound 0.0316 µM
[26] = second compound 10 µM, first compound 0.1 µM
[27] = second compound 10 µM, first compound 0.316 µM
[28] = second compound 10 µM, first compound 1 µM
[29] = second compound 10 µM, first compound 3.16 µM
[30] = second compound 10 µM, first compound 10 µM
[31] = second compound 0.1 µM, first compound 0.00949 µM
[32] = second compound 0.1 µM, first compound 0.03 µM
[33] = second compound 0.1 µM, first compound 0.0949 µM
[34] = second compound 0.1 µM, first compound 0.3 µM
[35] = second compound 0.316 µM, first compound 0.00949 µM
[36] = second compound 0.316 µM, first compound 0.03 µM
[37] = second compound 0.316 µM, first compound 0.0949 µM
[38] = second compound 0.316 µM, first compound 0.3 µM
[39] = second compound 1 µM, first compound 0.00949 µM
[40] = second compound 1 µM, first compound 0.03 µM
[41] = second compound 1 µM, first compound 0.0949 µM
[42] = second compound 1 µM, first compound 0.3 µM
[43] = second compound 3.16 µM, first compound 0.00949 µM
[44] = second compound 3.16 µM, first compound 0.03 µM
[45] = second compound 3.16 µM, first compound 0.0949 µM
[46] = second compound 3.16 µM, first compound 0.3 µM
[47] = second compound 10 µM, first compound 0.00949 µM
[48] = second compound 10 µM, first compound 0.03 µM
[49] = second compound 10 µM, first compound 0.0949 µM
[50] = second compound 10 µM, first compound 0.3 µM
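Also: spheroids exposed to agents for 7 days before viability read.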

SMILES: CC1(C)CCC(CN2CCN(c3ccc(C(=O)NS(=O)(=O)c4ccc(NCC5CCOCC5)c([N+](=O)[O-])c4)c(Oc4cnc5[nH]ccc5c4)c3)CC2)=C(c2ccc(Cl)cc2)C1 + NC1CCC(NC2CC2c2ccccc2)CC1
- IC50 (second compound 0.1 µM): 4990 nM
- IC50 (second compound 0.316 µM): 4830 nM
- IC50 (second compound 1 µM): 4900 nM
- IC50 (second compound 3.16 µM): 4940 nM
- IC50 (second compound 10 µM): 3840 nM
- viability, T/C [1]: 106%
- viability, T/C [2]: 109%
- viability, T/C [3]: 115%
- viability, T/C [4]: 98.9%
- viability, T/C [5]: 72.8%
- viability, T/C [6]: 15.8%
- viability, T/C [7]: 112%
- viability, T/C [8]: 116%
- viability, T/C [9]: 120%
- viability, T/C [10]: 90.1%
- viability, T/C [11]: 72.2%
- viability, T/C [12]: 16%
- viability, T/C [13]: 110%
- viability, T/C [14]: 115%
- viability, T/C [15]: 116%
- viability, T/C [16]: 93.4%
- viability, T/C [17]: 73.1%
- viability, T/C [18]: 14.7%
- viability, T/C [19]: 111%
- viability, T/C [20]: 107%
- viability, T/C [21]: 114%
- viability, T/C [22]: 98.7%
- viability, T/C [23]: 71%
- viability, T/C [24]: 17.4%
- viability, T/C [25]: 84.3%
- viability, T/C [26]: 82.8%
- viability, T/C [27]: 77.9%
- viability, T/C [28]: 87.4%
- viability, T/C [29]: 56.2%
- viability, T/C [30]: 19.9%

SMILES: CC1COCCN1c1cc(C2(S(C)(=N)=O)CC2)nc(-c2ccnc3[nH]ccc23)n1 (stereo not given) + NC1CCC(NC2CC2c2ccccc2)CC1
- IC50 (second compound 0.1 µM): 166 nM
- IC50 (second compound 0.316 µM): 155 nM
- IC50 (second compound 1 µM): 166 nM
- IC50 (second compound 3.16 µM): 119 nM
- IC50 (second compound 10 µM): 124 nM
- viability, T/C [1]: 98.8%
- viability, T/C [2]: 77.3%
- viability, T/C [3]: 15.1%
- viability, T/C [4]: 7.78%
- viability, T/C [5]: 9.98%
- viability, T/C [6]: 4.57%
- viability, T/C [7]: 94.7%
- viability, T/C [8]: 71.4%
- viability, T/C [9]: 15.3%
- viability, T/C [10]: 4.43%
- viability, T/C [11]: 4.53%
- viability, T/C [12]: 7.27%
- viability, T/C [13]: 98.8%
- viability, T/C [14]: 75.8%
- viability, T/C [15]: 17.4%
- viability, T/C [16]: 5.72%
- viability, T/C [17]: 7%
- viability, T/C [18]: 4.61%
- viability, T/C [19]: 108%
- viability, T/C [20]: 56.5%
- viability, T/C [21]: 13.4%
- viability, T/C [22]: 5.73%
- viability, T/C [23]: 4.8%
- viability, T/C [24]: 4.21%
- viability, T/C [25]: 84.5%
- viability, T/C [26]: 59.1%
- viability, T/C [27]: 9.91%
- viability, T/C [28]: 3.2%
- viability, T/C [29]: 3.14%
- viability, T/C [30]: 1.66%

SMILES: CCN(c1cc(-c2ccc(CN3CCOCC3)cc2)cc(C(=O)NCc2c(C)cc(C)[nH]c2=O)c1C)C1CCOCC1 + NC1CCC(NC2CC2c2ccccc2)CC1
- IC50 (second compound 0.1 µM): 1820 nM
- IC50 (second compound 0.316 µM): 1740 nM
- IC50 (second compound 1 µM): 2250 nM
- IC50 (second compound 3.16 µM): 2080 nM
- IC50 (second compound 10 µM): > 3000 nM
- viability, T/C [31]: 118%
- viability, T/C [32]: 135%
- viability, T/C [33]: 104%
- viability, T/C [34]: 117%
- viability, T/C (second compound 0.1 µM, first compound 0.949 µM): 98.6%
- viability, T/C (second compound 0.1 µM, first compound 3 µM): 12.3%
- viability, T/C [35]: 131%
- viability, T/C [36]: 114%
- viability, T/C [37]: 127%
- viability, T/C [38]: 94.5%
- viability, T/C (second compound 0.316 µM, first compound 0.949 µM): 79.1%
- viability, T/C (second compound 0.316 µM, first compound 3 µM): 26.1%
- viability, T/C [39]: 135%
- viability, T/C [40]: 107%
- viability, T/C [41]: 122%
- viability, T/C [42]: 87.2%
- viability, T/C (second compound 1 µM, first compound 0.949 µM): 80.2%
- viability, T/C (second compound 1 µM, first compound 3 µM): 39.9%
- viability, T/C [43]: 141%
- viability, T/C [44]: 125%
- viability, T/C [45]: 106%
- viability, T/C [46]: 102%
- viability, T/C (second compound 3.16 µM, first compound 0.949 µM): 78.3%
- viability, T/C (second compound 3.16 µM, first compound 3 µM): 35.8%
- viability, T/C [47]: 110%
- viability, T/C [48]: 95.4%
- viability, T/C [49]: 85.8%
- viability, T/C [50]: 82.7%
- viability, T/C (second compound 10 µM, first compound 0.949 µM): 78.5%
- viability, T/C (second compound 10 µM, first compound 3 µM): 55%

SMILES: Nc1ncn(C2CC(O)C(CO)S2)c(=O)n1 (stereo not given) + NC1CCC(NC2CC2c2ccccc2)CC1
- IC50 (second compound 0.1 µM): 5.37 nM
- IC50 (second compound 0.316 µM): 4.73 nM
- IC50 (second compound 1 µM): 4.84 nM
- IC50 (second compound 3.16 µM): 4.82 nM
- IC50 (second compound 10 µM): 2.75 nM
- viability, T/C (second compound 0.1 µM, first compound 0.000949 µM): 81.1%
- viability, T/C (second compound 0.1 µM, first compound 0.003 µM): 67.9%
- viability, T/C [31]: 32.5%
- viability, T/C [32]: 15.5%
- viability, T/C [33]: 12.6%
- viability, T/C [34]: 11.3%
- viability, T/C (second compound 0.316 µM, first compound 0.000949 µM): 93%
- viability, T/C (second compound 0.316 µM, first compound 0.003 µM): 59%
- viability, T/C [35]: 36.4%
- viability, T/C [36]: 20.6%
- viability, T/C [37]: 12.4%
- viability, T/C [38]: 10%
- viability, T/C (second compound 1 µM, first compound 0.000949 µM): 99.2%
- viability, T/C (second compound 1 µM, first compound 0.003 µM): 62.2%
- viability, T/C [39]: 32.8%
- viability, T/C [40]: 17.3%
- viability, T/C [41]: 11.5%
- viability, T/C [42]: 6.83%
- viability, T/C (second compound 3.16 µM, first compound 0.000949 µM): 83%
- viability, T/C (second compound 3.16 µM, first compound 0.003 µM): 61.6%
- viability, T/C [43]: 33.3%
- viability, T/C [44]: 18.8%
- viability, T/C [45]: 12.4%
- viability, T/C [46]: 8.51%
- viability, T/C (second compound 10 µM, first compound 0.000949 µM): 79.8%
- viability, T/C (second compound 10 µM, first compound 0.003 µM): 47.5%
- viability, T/C [47]: 23.8%
- viability, T/C [48]: 11.2%
- viability, T/C [49]: 9.62%
- viability, T/C [50]: 6.05%
